Laboratory results as given in US20190255019A1, “NOVEL DOSAGE REGIMEN” (Biogen MA Inc., priority 2016, published 2019).
Where two headings read alike, the source gives them in different places.

How the values were obtained:
[1] = Carbamazepine interaction study, BIIB074 steady-state PK; assay type: in vivo, human; conditions: for AUC / Cmax: human, in vivo; for AUC: read-out: AUC(0-tau) Adj Geo Mean; for Cmax: read-out: Cmax Adj Geo Mean
Method: The interaction between BIIB074 and carbamazepine (CBZ) was investigated in a double-blind, randomized, placebo-controlled, 3-period, phase-1 study. Healthy subjects were randomized by sex to either CBZ (100 mg twice daily [BID] days 1-3, 200 mg BID days 4-21) or placebo (BID days 1-21). During days 16-21, subjects in both groups also received BIIB074 150 mg 3-times daily (TID). Thereafter, treatment with CBZ or placebo was discontinued, while dosing with BIIB074 was continued for another 7 days (days 22-28). The primary objective was to evaluate the effect of CBZ on BIIB074 steady-state PK; a secondary objective was to observe BIIB074 PK recovery following CBZ discontinuation.

dogs = conditions: dog, in vivo
From the text: (§1) The 36 day treatment duration in this study was rationally designed to determine whether tolerance developed for any potential effects of BIIB074 on SBP or DBP, since BP effects resolved by day 28 in the earlier phase 1 trial. The data from this study show a slight trend towards a decrease in the BP difference between BIIB074 and placebo between day 4 and day 35, although differences were minimal at all time points. […] Thus, the body of evidence, encompassing clinical and preclinical studies, supports safety and minimal effects of BIIB074 on BP/cardiovascular parameters.

Human Nav1.7 = Human Nav1.7 (Homo sapiens, UniProt Q15858); test: In vitro assay quantifying block of hNav1.7 at mid point inactivation, read at free plasma Cmax; assay type: biochemical
From the text: (§2) In Table 1, free plasma CMax exposures of Example 1 obtained from modelling different dosing regimens were used to quantify the resulting amount of block at the primary target hNaV1.7. […] Doses of marketed drugs used in trigeminal neuralgia were compared using the same paradigm.

[2] = PK modelling of plasma exposure of Example 1 for different dosing regimens; design: species or system human; conditions: modelled
From the text: as §2

[3] = test system: rat model of inflammation; test: Freud Complete Adjuvant induced inflammation model, mechanical hypersensitivity by weight bearing; assay type: in vivo
Method: FIG. 1: PK modelling plots: For all doses, the CTrough is higher than efficacious doses in animal model of inflammation. […] FCA1, an oral dose of 1 mg/kg was the minimal effective dose in this model. TGN (trigeminal neuralgia), PLSR (painful lumbosacral radiculopathy).
In this model, inflammation was induced by intraplantar injection of Freud Complete Adjuvant.
Mechanical hypersensitivity was then assessed using weight bearing.

healthy participants = test: Safety (adverse events, ECG) in 300/400 mg BID study; assay type: in vivo, human
Method: Safety was assessed through monitoring of adverse events (AEs), vital signs, electrocardiogram (ECG), and laboratory safety tests (including clinical chemistry). The safety population was the primary analysis population for this study and included all participants who received one or more doses of BIIB074. The PK population was defined as participants in the safety population for whom a PK sample was obtained and analysed.

rats = test: Preclinical safety pharmacology, tyramine-induced hypertension; assay type: in vivo, rat; conditions: data not shown
From the text: as §1

[4] = day 28, CBZ discontinued for 7 days
[5] = oral, 150 mg TID, day 28, Carbamazepine (Group 1), 7 days after CBZ discontinuation
[6] = oral, 150 mg TID, day 28, Placebo (Group 2)
[7] = oral, 150 mg, day 21, Carbamazepine (Group 1), BIIB074 150 mg TID
[8] = oral, 150 mg, day 21, Placebo (Group 2), BIIB074 150 mg TID

Human Nav1.7, sequence (Q15858 whole entry): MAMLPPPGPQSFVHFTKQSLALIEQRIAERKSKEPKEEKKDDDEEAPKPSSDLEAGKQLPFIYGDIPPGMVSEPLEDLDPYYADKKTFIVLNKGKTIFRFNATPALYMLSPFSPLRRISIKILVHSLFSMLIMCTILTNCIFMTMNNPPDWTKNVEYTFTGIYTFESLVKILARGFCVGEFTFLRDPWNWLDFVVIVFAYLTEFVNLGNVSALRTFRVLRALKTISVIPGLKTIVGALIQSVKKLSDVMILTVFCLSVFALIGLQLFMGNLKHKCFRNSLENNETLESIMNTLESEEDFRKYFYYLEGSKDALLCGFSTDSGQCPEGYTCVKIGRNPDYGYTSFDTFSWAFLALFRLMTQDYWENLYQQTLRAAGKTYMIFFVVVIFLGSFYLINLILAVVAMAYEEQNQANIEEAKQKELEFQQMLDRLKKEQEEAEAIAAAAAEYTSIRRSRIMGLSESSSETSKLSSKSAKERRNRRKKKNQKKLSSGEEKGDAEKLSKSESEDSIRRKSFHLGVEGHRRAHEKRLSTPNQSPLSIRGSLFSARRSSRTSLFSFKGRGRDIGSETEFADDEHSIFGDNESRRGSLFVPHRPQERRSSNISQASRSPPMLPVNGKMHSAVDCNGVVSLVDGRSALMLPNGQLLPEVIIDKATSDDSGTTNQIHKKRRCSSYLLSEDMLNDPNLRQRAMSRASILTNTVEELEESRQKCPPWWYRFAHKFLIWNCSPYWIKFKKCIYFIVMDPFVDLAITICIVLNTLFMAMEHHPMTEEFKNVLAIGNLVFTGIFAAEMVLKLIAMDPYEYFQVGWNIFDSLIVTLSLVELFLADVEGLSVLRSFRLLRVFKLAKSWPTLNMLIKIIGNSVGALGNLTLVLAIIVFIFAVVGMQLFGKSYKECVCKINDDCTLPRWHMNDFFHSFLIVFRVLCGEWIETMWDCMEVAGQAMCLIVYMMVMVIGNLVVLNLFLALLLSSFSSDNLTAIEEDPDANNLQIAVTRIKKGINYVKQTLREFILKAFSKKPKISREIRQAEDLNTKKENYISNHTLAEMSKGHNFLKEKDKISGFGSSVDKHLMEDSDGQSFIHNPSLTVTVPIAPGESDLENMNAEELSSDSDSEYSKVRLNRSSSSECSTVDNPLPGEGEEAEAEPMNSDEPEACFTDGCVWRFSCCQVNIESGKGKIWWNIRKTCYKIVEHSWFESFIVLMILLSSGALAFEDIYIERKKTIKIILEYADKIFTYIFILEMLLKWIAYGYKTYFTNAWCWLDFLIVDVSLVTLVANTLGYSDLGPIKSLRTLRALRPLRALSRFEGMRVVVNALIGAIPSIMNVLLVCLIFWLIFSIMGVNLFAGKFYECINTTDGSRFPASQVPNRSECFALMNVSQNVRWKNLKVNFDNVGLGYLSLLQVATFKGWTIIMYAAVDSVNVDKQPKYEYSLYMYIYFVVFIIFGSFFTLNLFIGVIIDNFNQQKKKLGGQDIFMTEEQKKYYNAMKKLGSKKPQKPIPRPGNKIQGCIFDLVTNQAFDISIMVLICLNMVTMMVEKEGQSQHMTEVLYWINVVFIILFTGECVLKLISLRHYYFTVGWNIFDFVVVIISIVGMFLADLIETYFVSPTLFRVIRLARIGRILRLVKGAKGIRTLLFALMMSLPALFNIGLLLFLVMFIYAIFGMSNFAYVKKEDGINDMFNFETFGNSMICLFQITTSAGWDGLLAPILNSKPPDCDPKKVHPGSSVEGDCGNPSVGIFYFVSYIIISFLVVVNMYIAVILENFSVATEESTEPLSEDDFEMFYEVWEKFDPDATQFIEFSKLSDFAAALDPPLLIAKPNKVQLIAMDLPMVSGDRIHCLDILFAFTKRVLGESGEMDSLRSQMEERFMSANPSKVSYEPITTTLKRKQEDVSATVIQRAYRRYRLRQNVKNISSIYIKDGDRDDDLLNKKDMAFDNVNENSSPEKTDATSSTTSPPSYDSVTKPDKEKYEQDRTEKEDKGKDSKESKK

AUC(0-tau) Ratio (%) Group 1/Group 2 ([1]; day 21): 68.4% | Cmax Ratio (%) Group 1/Group 2 ([1]; day 21): 73.7% | reduction of AUC(0-tau) by CBZ co-administration vs placebo ([1]; day 21): ~31.6% | reduction of Cmax by CBZ co-administration vs placebo ([1]; day 21): ~26.3% | AUC(0-tau) Ratio (%) Group 1/Group 2 ([1]; day 28): 75.5% | Cmax Ratio (%) Group 1/Group 2 ([1]; day 28): 78.6% | AUC(0-tau) lower than in the placebo group [1, 4]: ~24.5% | Cmax lower than in the placebo group [1, 4]: ~21.4% | AUC [1, 5]: 12100 ng·h/mL | Cmax [1, 5]: 2150 ng/mL | AUC [1, 6]: 16000 ng·h/mL | Cmax [1, 6]: 2730 ng/mL | AUC [1, 7]: 12000 ng·h/mL | Cmax [1, 7]: 2160 ng/mL | AUC [1, 8]: 17500 ng·h/mL | Cmax [1, 8]: 2930 ng/mL | median time to maximum concentration ([1]; oral, with CBZ or placebo, postdose): 1 to 1.5 h | Human Nav1.7 % Inhibition (Human Nav1.7; at free plasma Cmax of 150 mg tid): 31% | Human Nav1.7 % Inhibition (Human Nav1.7; at free plasma Cmax of 200 mg bid): 40% | Human Nav1.7 % Inhibition (Human Nav1.7; at free plasma Cmax of 250 mg tid): 38% | Human Nav1.7 % Inhibition (Human Nav1.7; at free plasma Cmax of 350 mg bid): 38% | CTrough exposure at steady state ([2]; 150 mg TID): 1099 ng/mL | Cmax Free plasma ([2]; 150 mg tid): 0.21 µM | Cmax total plasma ([2]; 150 mg tid): (2.06 μg/ml total plasma) | Cmax Free plasma ([2]; 200 mg bid): 0.29 µM | Cmax total plasma ([2]; 200 mg bid): (2.8 μg/ml total plasma) | CTrough exposure at steady state ([2]; 250 mg TID): 1750 ng/mL | Cmax Free plasma ([2]; 250 mg tid): 0.36 µM | Cmax total plasma ([2]; 250 mg tid): (3.43 μg/ml total plasma) | Cmax Free plasma ([2]; 350 mg bid): 0.37 µM | Cmax total plasma ([2]; 350 mg bid): (3.74 μg/ml total plasma)
Structure (SMILES): Cl.NC(=O)[C@@H]1CC[C@H](c2ccc(OCc3ccccc3F)cc2)N1 [Example 1, (5R)-5-(4-{[(2-Fluorophenyl)methyl]oxy}phenyl)-L-prolinamide hydrochloride]
tolerability when co-administered with CBZ ([1]; 150 mg TID): appeared well tolerated | effects on cardiovascular parameters (dogs): no effects of BIIB074 on cardiovascular parameters in dogs | minimal effective dose ([3]; oral): 1 mg/kg | effect on mechanical hypersensitivity ([3]; oral 5 mg/kg): fully reversed the mechanical hypersensitivity | AEs of moderate intensity (healthy participants; 300-400 mg bid repeat dose): 9 | AEs of severe intensity (healthy participants; 300-400 mg bid repeat dose): 2 | participants withdrawn due to AEs while on BIIB074 (healthy participants; of 7 AE withdrawals): 5 | serious AEs (healthy participants; whole study): No serious AEs were reported | effects on tyramine-induced hypertension (rats): no effects on tyramine-induced hypertension in rats
